Measured values published in ChEMBL document CHEMBL5291721, “A preclinical secondary pharmacology resource illuminates target-adverse drug reaction associations of marketed drugs” (Nat Commun, 2023).

Key:
[1] = biological target: Melanocortin receptor 3 (Homo sapiens, UniProt P41968)
[2] = biological target: T1, Progesterone receptor (Homo sapiens, UniProt P06401); type: functional
T1 sequence (P06401 whole entry): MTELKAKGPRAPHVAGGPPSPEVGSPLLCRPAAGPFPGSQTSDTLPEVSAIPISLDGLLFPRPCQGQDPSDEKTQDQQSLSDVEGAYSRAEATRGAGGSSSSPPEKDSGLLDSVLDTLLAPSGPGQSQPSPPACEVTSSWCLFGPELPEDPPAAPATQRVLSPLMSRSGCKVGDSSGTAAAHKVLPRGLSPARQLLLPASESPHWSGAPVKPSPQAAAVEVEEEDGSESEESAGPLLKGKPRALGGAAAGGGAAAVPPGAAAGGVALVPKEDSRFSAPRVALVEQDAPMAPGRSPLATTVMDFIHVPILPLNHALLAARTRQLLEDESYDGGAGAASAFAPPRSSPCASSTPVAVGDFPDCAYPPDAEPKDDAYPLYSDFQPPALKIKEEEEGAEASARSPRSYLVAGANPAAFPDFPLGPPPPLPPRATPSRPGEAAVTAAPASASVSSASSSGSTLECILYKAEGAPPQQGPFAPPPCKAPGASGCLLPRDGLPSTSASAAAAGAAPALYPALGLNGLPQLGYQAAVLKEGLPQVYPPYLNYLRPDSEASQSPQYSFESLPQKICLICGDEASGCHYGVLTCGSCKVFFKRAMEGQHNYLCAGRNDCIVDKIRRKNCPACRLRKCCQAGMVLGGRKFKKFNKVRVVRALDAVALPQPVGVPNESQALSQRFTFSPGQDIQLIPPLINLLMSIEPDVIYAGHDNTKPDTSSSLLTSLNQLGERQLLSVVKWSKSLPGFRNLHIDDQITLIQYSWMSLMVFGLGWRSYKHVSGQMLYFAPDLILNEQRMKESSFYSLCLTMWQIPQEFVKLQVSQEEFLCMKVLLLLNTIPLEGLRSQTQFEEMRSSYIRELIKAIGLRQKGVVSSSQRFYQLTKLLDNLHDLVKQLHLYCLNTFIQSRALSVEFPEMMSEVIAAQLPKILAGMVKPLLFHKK

[3] = biological target: Gamma-aminobutyric acid receptor subunit alpha-1 (Rattus norvegicus, UniProt P62813)
[4] = biological target: Voltage-gated inwardly rectifying potassium channel KCNH2 (Homo sapiens, UniProt Q12809); type: functional; conditions: read-out: AC50
[5] = biological target: Kappa-type opioid receptor (Homo sapiens, UniProt P41145)
[6] = biological target: Neuronal acetylcholine receptor subunit alpha-4 (Homo sapiens, UniProt P43681)
[7] = biological target: T2, Muscarinic acetylcholine receptor M2 (Homo sapiens, UniProt P08172); type: functional, cell-based
T2 sequence (P08172 whole entry): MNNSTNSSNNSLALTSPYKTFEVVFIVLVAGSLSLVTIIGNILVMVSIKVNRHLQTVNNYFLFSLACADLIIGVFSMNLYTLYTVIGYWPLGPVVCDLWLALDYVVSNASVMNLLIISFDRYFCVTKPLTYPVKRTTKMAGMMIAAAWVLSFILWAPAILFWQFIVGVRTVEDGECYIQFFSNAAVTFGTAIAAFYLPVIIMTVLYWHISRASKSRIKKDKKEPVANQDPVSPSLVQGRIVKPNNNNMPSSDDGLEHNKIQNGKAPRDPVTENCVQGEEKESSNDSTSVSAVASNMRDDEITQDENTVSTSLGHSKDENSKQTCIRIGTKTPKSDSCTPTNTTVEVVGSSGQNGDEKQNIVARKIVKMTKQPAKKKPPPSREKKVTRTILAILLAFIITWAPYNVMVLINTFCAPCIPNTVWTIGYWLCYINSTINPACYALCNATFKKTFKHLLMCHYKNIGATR

[8] = biological target: T2, Muscarinic acetylcholine receptor M2; type: functional, cell-based; remark: listed apart in the source
[9] = biological target: T3, Thromboxane A2 receptor (Homo sapiens, UniProt P21731)
T3 sequence (P21731 whole entry): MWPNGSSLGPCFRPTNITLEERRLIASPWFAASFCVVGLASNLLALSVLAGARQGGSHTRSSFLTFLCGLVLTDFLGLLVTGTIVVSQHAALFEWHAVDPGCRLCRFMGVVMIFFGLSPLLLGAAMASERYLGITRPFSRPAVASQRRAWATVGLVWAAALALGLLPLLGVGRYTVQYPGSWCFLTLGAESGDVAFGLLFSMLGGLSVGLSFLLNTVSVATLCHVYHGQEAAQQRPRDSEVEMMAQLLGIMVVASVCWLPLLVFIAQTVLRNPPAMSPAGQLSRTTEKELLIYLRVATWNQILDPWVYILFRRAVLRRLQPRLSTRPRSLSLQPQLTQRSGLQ

[10] = biological target: T4, Neuropeptide Y receptor type 1 (Homo sapiens, UniProt P25929)
T4 sequence (P25929 whole entry): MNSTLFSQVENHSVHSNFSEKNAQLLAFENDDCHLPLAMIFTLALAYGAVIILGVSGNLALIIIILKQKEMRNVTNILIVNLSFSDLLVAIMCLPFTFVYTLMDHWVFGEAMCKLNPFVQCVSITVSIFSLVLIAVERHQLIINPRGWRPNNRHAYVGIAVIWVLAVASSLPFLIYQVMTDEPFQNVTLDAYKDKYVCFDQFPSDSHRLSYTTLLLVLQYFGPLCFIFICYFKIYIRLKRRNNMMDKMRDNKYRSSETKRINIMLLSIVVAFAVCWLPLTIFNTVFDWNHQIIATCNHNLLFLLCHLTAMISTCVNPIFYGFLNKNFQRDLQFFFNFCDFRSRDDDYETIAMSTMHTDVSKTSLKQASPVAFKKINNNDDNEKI

[11] = biological target: Delta-type opioid receptor (Homo sapiens, UniProt P41143)
[12] = biological target: Vasopressin V1a receptor (Homo sapiens, UniProt P37288)
[13] = biological target: D(3) dopamine receptor (Homo sapiens, UniProt P35462)
[14] = biological target: Muscarinic acetylcholine receptor M3 (Homo sapiens, UniProt P20309)
Further: assay procedure not described here.

Chain of Neuronal acetylcholine receptor subunit alpha-4 (P43681 whole entry): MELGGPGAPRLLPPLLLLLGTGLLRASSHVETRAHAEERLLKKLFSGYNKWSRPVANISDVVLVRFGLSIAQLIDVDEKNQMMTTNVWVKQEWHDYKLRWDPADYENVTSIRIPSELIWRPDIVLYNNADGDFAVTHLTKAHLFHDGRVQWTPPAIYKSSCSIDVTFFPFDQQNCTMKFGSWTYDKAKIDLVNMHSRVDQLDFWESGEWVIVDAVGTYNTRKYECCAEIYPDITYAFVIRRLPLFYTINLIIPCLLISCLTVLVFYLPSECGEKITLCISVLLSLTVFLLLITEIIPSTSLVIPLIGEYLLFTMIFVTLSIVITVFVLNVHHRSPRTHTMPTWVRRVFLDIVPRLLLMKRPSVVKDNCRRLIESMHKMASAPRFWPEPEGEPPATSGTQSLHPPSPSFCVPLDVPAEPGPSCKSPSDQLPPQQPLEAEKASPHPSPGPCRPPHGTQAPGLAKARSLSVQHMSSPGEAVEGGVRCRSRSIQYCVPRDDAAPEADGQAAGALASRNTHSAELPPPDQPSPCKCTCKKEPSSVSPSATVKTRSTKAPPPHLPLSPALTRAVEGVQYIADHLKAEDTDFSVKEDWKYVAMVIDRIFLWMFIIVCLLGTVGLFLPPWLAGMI
Chain of Vasopressin V1a receptor (P37288 whole entry): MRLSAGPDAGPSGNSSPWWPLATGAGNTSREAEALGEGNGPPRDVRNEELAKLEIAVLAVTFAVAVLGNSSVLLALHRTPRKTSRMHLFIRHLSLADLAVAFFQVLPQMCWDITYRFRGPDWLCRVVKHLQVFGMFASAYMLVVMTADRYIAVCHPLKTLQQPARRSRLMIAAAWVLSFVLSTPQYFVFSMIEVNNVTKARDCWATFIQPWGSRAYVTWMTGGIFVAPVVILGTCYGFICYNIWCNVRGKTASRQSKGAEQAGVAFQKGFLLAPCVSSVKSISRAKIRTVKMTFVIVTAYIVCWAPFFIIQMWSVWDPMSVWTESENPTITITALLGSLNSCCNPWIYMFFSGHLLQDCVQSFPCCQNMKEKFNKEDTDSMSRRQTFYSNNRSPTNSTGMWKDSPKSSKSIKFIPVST
Chain of Melanocortin receptor 3 (P41968 whole entry): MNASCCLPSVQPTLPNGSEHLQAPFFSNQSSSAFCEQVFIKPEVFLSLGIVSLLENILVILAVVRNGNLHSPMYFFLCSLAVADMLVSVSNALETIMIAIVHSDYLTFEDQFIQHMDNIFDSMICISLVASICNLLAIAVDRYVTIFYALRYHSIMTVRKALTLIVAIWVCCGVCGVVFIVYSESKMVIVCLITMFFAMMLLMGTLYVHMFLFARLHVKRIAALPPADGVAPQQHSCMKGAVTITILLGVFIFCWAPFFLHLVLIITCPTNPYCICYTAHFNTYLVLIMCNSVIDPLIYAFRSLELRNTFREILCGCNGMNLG
Chain of Kappa-type opioid receptor (P41145 whole entry): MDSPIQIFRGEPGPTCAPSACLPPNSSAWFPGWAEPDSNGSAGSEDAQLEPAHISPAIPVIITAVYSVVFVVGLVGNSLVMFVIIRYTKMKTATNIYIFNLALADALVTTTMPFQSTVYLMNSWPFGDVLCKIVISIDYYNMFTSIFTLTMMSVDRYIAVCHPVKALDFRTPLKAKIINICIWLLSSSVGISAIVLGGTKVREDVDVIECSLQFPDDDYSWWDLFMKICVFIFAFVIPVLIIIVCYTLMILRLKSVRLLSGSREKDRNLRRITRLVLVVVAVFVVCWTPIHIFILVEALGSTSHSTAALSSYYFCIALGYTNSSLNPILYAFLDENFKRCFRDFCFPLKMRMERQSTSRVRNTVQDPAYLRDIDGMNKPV
Chain of Delta-type opioid receptor (P41143 whole entry): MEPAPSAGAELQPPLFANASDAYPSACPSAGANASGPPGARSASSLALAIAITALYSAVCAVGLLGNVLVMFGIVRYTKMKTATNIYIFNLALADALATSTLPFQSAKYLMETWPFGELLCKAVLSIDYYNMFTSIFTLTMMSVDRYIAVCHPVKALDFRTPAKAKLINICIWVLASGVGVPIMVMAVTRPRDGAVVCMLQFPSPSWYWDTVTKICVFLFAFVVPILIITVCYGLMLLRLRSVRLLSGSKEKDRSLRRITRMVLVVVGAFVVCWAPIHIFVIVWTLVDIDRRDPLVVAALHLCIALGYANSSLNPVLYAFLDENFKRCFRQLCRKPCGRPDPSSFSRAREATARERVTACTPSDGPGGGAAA
Chain of Gamma-aminobutyric acid receptor subunit alpha-1 (P62813 whole entry): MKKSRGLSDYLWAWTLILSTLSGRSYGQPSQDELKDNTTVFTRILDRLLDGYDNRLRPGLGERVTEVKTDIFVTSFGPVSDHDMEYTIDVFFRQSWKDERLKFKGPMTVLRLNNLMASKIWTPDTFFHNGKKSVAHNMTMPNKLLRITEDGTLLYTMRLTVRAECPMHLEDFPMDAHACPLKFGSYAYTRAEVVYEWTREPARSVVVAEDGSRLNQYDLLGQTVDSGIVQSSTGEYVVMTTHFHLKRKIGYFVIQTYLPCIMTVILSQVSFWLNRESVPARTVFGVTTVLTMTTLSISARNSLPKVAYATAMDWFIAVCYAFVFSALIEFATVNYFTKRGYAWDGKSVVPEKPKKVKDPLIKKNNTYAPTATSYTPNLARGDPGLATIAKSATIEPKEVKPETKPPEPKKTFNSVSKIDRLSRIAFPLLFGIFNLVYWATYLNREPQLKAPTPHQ
Chain of Muscarinic acetylcholine receptor M3 (P20309 whole entry): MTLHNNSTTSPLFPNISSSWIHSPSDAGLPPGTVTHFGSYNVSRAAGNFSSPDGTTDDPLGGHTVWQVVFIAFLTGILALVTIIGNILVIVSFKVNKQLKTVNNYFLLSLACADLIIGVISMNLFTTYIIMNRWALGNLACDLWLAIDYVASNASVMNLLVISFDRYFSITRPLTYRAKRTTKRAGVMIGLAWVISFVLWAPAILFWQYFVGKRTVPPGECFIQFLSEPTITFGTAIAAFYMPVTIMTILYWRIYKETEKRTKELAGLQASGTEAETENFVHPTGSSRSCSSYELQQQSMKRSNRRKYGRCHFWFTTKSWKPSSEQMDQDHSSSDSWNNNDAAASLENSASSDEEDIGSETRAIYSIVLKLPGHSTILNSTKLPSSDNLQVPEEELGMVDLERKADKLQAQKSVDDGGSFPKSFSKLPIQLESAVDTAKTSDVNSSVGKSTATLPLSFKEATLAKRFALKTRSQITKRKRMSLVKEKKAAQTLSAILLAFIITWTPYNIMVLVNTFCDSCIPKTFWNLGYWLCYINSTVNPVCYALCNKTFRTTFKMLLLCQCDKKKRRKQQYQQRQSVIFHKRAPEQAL
Chain of Voltage-gated inwardly rectifying potassium channel KCNH2 (Q12809 whole entry): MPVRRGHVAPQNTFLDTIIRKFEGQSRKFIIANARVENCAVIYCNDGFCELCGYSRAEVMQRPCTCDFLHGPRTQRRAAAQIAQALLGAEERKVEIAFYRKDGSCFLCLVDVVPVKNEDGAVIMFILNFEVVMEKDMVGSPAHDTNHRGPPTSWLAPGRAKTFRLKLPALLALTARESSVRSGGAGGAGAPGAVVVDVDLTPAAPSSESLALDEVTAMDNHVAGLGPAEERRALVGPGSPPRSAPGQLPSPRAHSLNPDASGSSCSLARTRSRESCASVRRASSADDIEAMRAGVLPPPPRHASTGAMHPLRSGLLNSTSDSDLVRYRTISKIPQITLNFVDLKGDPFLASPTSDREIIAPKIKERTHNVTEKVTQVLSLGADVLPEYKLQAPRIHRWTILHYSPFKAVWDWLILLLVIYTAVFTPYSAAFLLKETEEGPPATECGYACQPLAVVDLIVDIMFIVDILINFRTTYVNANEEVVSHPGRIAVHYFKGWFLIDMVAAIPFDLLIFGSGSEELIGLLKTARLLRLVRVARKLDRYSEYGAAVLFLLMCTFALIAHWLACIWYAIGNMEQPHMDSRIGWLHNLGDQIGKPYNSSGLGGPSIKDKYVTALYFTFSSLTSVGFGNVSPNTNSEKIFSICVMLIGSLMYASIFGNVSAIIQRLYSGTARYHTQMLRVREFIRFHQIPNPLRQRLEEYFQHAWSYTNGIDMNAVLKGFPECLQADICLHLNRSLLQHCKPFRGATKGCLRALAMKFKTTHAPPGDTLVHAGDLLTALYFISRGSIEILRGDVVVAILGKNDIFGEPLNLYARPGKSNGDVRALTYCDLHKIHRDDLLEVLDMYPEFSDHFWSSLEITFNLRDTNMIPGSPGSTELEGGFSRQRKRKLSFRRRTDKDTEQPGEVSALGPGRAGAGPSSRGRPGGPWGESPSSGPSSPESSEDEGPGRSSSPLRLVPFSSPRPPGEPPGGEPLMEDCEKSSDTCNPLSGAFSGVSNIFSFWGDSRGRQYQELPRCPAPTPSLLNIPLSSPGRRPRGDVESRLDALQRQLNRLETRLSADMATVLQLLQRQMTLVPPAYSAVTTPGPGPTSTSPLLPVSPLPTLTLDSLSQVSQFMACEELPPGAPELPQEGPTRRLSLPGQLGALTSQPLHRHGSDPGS
Chain of D(3) dopamine receptor (P35462 whole entry): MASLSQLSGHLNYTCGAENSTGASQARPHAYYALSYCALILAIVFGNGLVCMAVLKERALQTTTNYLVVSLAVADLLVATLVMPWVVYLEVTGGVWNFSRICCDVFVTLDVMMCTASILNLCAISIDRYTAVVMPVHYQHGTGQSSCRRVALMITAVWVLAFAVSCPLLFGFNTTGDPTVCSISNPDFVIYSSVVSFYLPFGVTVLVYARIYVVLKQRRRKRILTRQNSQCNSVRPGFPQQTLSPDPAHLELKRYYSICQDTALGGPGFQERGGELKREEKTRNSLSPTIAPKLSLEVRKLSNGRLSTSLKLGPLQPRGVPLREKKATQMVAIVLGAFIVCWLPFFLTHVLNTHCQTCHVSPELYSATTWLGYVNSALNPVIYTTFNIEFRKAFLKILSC

Structure (SMILES)	AC50 [1]	AC50 [2]	AC50 [3]	AC50 [4]	AC50 [5]	AC50 [6]	AC50 [7]	AC50 [8]	AC50 [9]	AC50 [10]	AC50 [11]	AC50 [12]	AC50 [13]	AC50 [14]
O=C(C[S+]([O-])C(c1ccccc1)c1ccccc1)NO (configuration not stated)	> 30 µM	> 30 µM	> 30 µM	> 30 µM	> 30 µM	> 30 µM	> 30 µM	> 30 µM	> 30 µM	> 30 µM	> 30 µM	> 30 µM	> 30 µM	> 30 µM
Nc1ncnc2c1ncn2[C@@H]1O[C@H](COP(=O)(O)O)[C@@H](O)[C@H]1O [ADENOSINE PHOSPHATE]	> 30 µM	> 30 µM	> 30 µM	15 µM	> 30 µM	> 30 µM	> 30 µM	> 30 µM	> 30 µM	> 30 µM	> 30 µM	> 30 µM	> 30 µM	> 30 µM
CC(=O)OCC(=O)[C@@]12OC3(CCCC3)O[C@@H]1C[C@H]1[C@@H]3CCC4=CC(=O)C=C[C@]4(C)[C@@]3(F)[C@@H](O)C[C@@]12C [AMCINONIDE]	> 10 µM	0.212 µM	> 10 µM	17.3 µM	> 10 µM	> 10 µM	> 10 µM	> 10 µM	> 10 µM	> 10 µM	> 30 µM	> 10 µM	> 30 µM	> 30 µM
CCC(C(=O)O)c1ccc(CC(C)C)cc1 (configuration not stated) [BUTIBUFEN]	> 30 µM	> 30 µM	> 30 µM	> 30 µM	> 30 µM	> 30 µM	> 30 µM	> 30 µM	> 30 µM	> 30 µM	> 30 µM	> 30 µM	> 30 µM	> 30 µM
CC(C)C(=O)OCC(=O)[C@@]12O[C@H](C3CCCCC3)O[C@@H]1C[C@H]1[C@@H]3CCC4=CC(=O)C=C[C@]4(C)[C@H]3[C@@H](O)C[C@@]12C [CICLESONIDE]	> 10 µM	7.1 µM	> 30 µM	> 30 µM	9.72 µM	> 10 µM	> 10 µM	> 10 µM	> 10 µM	> 10 µM	> 30 µM	> 10 µM	> 30 µM	> 30 µM
CCOC(=O)[C@H](CCc1ccccc1)N[C@H]1CCCN2CCC[C@@H](C(=O)O)N2C1=O [CILAZAPRIL]	> 30 µM	> 30 µM	> 30 µM	> 30 µM	> 30 µM	> 30 µM	> 30 µM	> 30 µM	> 30 µM	> 30 µM	> 30 µM	> 30 µM	> 30 µM	> 30 µM
CCOc1cc(N)c([N+](=O)[O-])cc1C(=O)NC1CCN(CC2CC=CCC2)CC1 (configuration not stated) [CINITAPRIDE]	> 30 µM	> 30 µM	> 30 µM	0.31 µM	9.1 µM	15 µM	> 30 µM	> 30 µM	> 30 µM	> 30 µM	> 30 µM	> 30 µM	0.038 µM	13 µM
CN1C(=O)CC(=O)N(c2ccccc2)c2cc(Cl)ccc21 [CLOBAZAM]	> 10 µM	> 10 µM	> 10 µM	> 30 µM	14.1 µM	> 10 µM	> 10 µM	> 10 µM	> 10 µM	> 10 µM	> 30 µM	> 10 µM	> 30 µM	> 30 µM
CCCCOc1cc(C(=O)NCCN(CC)CC)c2ccccc2n1 [DIBUCAINE]	> 30 µM	> 10 µM	> 30 µM	1.42 µM	7.36 µM	> 30 µM	> 10 µM	> 10 µM	> 30 µM	> 30 µM	> 30 µM	> 30 µM	> 30 µM	> 30 µM
C#CC1(OC(N)=O)CCCCC1 [ETHINAMATE]	> 10 µM	> 10 µM	> 10 µM	> 30 µM	> 10 µM	> 10 µM	> 10 µM	> 10 µM	> 10 µM	> 10 µM	> 30 µM	> 10 µM	> 30 µM	> 30 µM
CCC1(C2=CCCCCC2)C(=O)NC(=O)NC1=O [HEPTABARBITAL]	> 10 µM	> 10 µM	> 10 µM	> 30 µM	> 10 µM	> 10 µM	> 10 µM	> 10 µM	> 10 µM	> 10 µM	> 30 µM	> 10 µM	> 30 µM	> 30 µM
CCCCCN(C)CCC(O)(P(=O)(O)O)P(=O)(O)O [IBANDRONIC ACID]	> 30 µM	> 30 µM	> 30 µM	> 30 µM	> 30 µM	> 30 µM	> 30 µM	> 30 µM	> 30 µM	> 30 µM	> 30 µM	> 30 µM	> 30 µM	> 30 µM
C1=Cc2cccc(OCC3CNCCO3)c2C1 (configuration not stated) [INDELOXAZINE]	> 30 µM	> 30 µM	> 30 µM	> 30 µM	25 µM	> 30 µM	> 30 µM	> 30 µM	> 30 µM	> 30 µM	22 µM	> 30 µM	> 30 µM	> 30 µM
